Experimental findings from ChEMBL document CHEMBL1201862, “PubChem BioAssay data set” (2004) are described below.

What all share (experiment): inhibition of tumour cell growth, NCI panel, 48 h
The subject of assay [1] is CAKI-1.
Assay [2] concerns MCF7.
The test system of assay [3] is U-251.
In assay [4] the test system is SK-OV-3.
Assay [5] concerns OVCAR-5.
Assay [6] concerns SF-268.
The subject of assay [7] is MDA-N.
Assay [8] relates to HL-60.
Assay [9] deals with HCT-15.
In assay [10] the test system is SK-MEL-28.
Assay [11] concerns RXF 393.
In assay [12] the test system is UO-31.
The subject of assay [13] is K562.
Assay [14] deals with OVCAR-4.
The test system of assay [15] is NCI-H522.
For assay [16], the system named is NCI/ADR-RES.
Assay [17] relates to MDA-MB-231.
Assay [18] deals with KM12.
In assay [19] the test system is NCI-H23.
Assay [20] deals with DU-145.

Each structure is given as a SMILES string.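 Test compounds were applied to cells in 96-well plates for 48 hours at 5 doses. GI50 marks 50% less growth.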 The source made the active and inactive calls. Rule as the data show it: active = GI50 up to about 1.1 µM and inactive = higher.

Turning to `O=C(Nc1cccc2nsnc12)c1cc2c(cc1Cl)Sc1nccn1S2(=O)=O`, the GI50 in assay [1] is 9.55 µM (inactive); in assay [2], 1.73 µM (inactive); in assay [3] it was 5.66 µM (inactive); in assay [4] it was 54.5 µM (inactive); in [5], 32.4 µM (inactive); in assay [6], 3.62 µM (inactive). For the same compound, the GI50 in assay [7] was 14.1 µM (inactive); in assay [8], 1.85 µM (inactive); in assay [9] it was 5.19 µM; in [10], 3.01 µM (inactive); in assay [11] it was 4.6 µM (inactive); in [12], 2.07 µM (inactive). The GI50 in assay [13] is 3.98 µM (inactive); in assay [14], 3.31 µM (inactive); in assay [15], 8.2 µM (inactive); in assay [16] it was 17.7 µM (inactive); in assay [17] it was 8.26 µM (inactive); in assay [18] it was 2.08 µM (inactive). In addition, the GI50 in assay [19] was 11.2 µM (inactive).

With `O=C(CC(=O)N(C(=O)/C=C\c1ccccc1)c1ccc(Cl)cc1)N1N=C(c2ccccc2)C(/N=N/c2cccc([N+](=O)[O-])c2)C1=O` (stereo unspecified), the GI50 is 10.7 µM (inactive) in assay [1]; 3.45 µM (inactive) in assay [2]; 5.82 µM (inactive) in assay [3]; 6.32 µM (inactive) in assay [4]; 48.9 µM (inactive) in assay [5]; 4.23 µM (inactive) in [6]. Besides, the GI50 was 7.05 µM (inactive) in [7]; 2.84 µM (inactive) in [8]; 1.36 µM in [9]; 13.3 µM (inactive) in assay [20]; 11.5 µM (inactive) in [10]; 10.3 µM (inactive) in assay [11]. For the same compound, the GI50 was > 100 µM (inactive) in assay [12]; 4.65 µM (inactive) in assay [13]; 2.18 µM (inactive) in assay [16]; 0.971 µM (active) in assay [17]; 1.76 µM (inactive) in assay [18]; 8.28 µM (inactive) in assay [19].

Consider `CCc1c(CNC2=NCCN2)c(CC)c(CNC2=NCCN2)c(CC)c1CNC1=NCCN1`, for which the GI50 in assay [1], in assay [2], in [3], in assay [4], in assay [5] and in [6] was > 100 µM (inactive) throughout. Moreover, the GI50 was > 100 µM (inactive) in assay [7]; greater than 100 µM in [9]; > 100 µM (inactive) in [20]; > 100 µM (inactive) in assay [10]; > 100 µM (inactive) in assay [11]; > 100 µM (inactive) in assay [12]. Also, the GI50 in assay [13], in assay [14], in assay [15], in assay [16], in assay [18] and in assay [19] was > 100 µM (inactive) throughout.

Take `COC(=O)C12OCC34C(CC5C(C)=CC(=O)C(O)C5(C)C3C(O)C1O)OC(=O)C(OC(=O)CC(C)C)C24` (stereo unspecified): the GI50 in assay [1] is 0.005 µM (active); in assay [3], 0.00116 µM (active); in [4], 0.0031 µM (active); in assay [5], 0.00325 µM (active); in assay [6], 0.00217 µM (active); in [7] it was 0.00142 µM (active). For the same compound, the GI50 in assay [8] was 0.000208 µM (active); in assay [9], 0.00288 µM; in [20], 0.00083 µM (active); in [10], 0.00134 µM (active); in [11] it was 0.00168 µM (active); in assay [12], 0.00738 µM (active). In addition, the GI50 in [15] is 0.000352 µM (active); in assay [16], 0.00289 µM (active); in [17], 0.00369 µM (active); in [18], 0.00166 µM (active); in assay [19], 0.000778 µM (active).

In the case of `O=C(OC1C(Oc2ccccc2COC(=O)C2(O)C=CCCC2=O)OC(CO)C(O)C1O)c1ccccc1` (stereo unspecified), the GI50 was 4.11 µM (inactive) in assay [1]; 20.8 µM (inactive) in assay [3]; 33.9 µM (inactive) in assay [4]; 91.2 µM (inactive) in assay [5]; 13.2 µM (inactive) in assay [6]; 27 µM (inactive) in assay [7]. Further, the GI50 in [8] was 23.6 µM (inactive); in assay [9], 28.2 µM; in [20], 0.953 µM (active); in assay [10], 68.4 µM (inactive); in [12], 26.5 µM (inactive); in [13], 34.4 µM (inactive). The GI50 in assay [14] is 41.2 µM (inactive); in assay [15] it was 17.7 µM (inactive); in [16], 34.8 µM (inactive); in [17] it was 35.5 µM (inactive); in assay [18], 27.4 µM (inactive); in [19] it was 26.4 µM (inactive).

For the compound `COC(=O)Cc1c([C@H]2[C@H](CC(=O)OC)c3ccccc3N2C(C)=O)[nH]c2ccccc12`, the GI50 was > 100 µM (inactive) in assay [1]; 91.2 µM (inactive) in assay [3]; > 100 µM (inactive) in assay [4]; > 100 µM (inactive) in assay [5]; > 100 µM (inactive) in assay [6]; > 100 µM (inactive) in assay [7]. Also, the GI50 in [8] was 85.3 µM (inactive); in [9], 64.3 µM; in assay [20] it was > 100 µM (inactive); in [10] it was > 100 µM (inactive); in assay [11], > 100 µM (inactive); in [12], 39.9 µM (inactive). Besides, the GI50 in [13] is 50.8 µM (inactive); in assay [15] it was 71 µM (inactive); in assay [16] it was > 100 µM (inactive); in assay [17], > 100 µM (inactive); in assay [18], > 100 µM (inactive); in assay [19], 50.9 µM (inactive).

With `CC(=O)NC1(C)C(C)C2CC1C(C)C2(C)C` (stereo unspecified), the GI50 in assay [1], in assay [2], in assay [3], in assay [4], in assay [5] and in [6] was > 100 µM (inactive) in each case. The GI50 in [7], in assay [8], in [20], in assay [10], in assay [11] and in assay [12] was > 100 µM (inactive) in each case. The GI50 in [13], in [14], in assay [15], in assay [17], in assay [18] and in assay [19] was > 100 µM (inactive) each time.

Regarding `CC(C)(C)C(=O)CC(=O)C(F)(F)C(F)(F)C(F)(F)F`, the GI50 in assay [1] is 14.7 µM (inactive); in assay [3] it was 18.4 µM (inactive); in assay [4] it was 20.9 µM (inactive); in assay [5] it was 35.4 µM (inactive); in [6] it was 17 µM (inactive); in assay [7] it was 15.4 µM (inactive). In addition, the GI50 was 19.2 µM (inactive) in [8]; 14.3 µM in [9]; 36.1 µM (inactive) in assay [20]; 14.1 µM (inactive) in [10]; 17.3 µM (inactive) in assay [11]; 20 µM (inactive) in assay [12]. For the same compound, the GI50 was 15.8 µM (inactive) in assay [13]; 13.2 µM (inactive) in [14]; 18.6 µM (inactive) in assay [16]; 15.5 µM (inactive) in assay [17]; 16.7 µM (inactive) in assay [18]; 12.6 µM (inactive) in assay [19].

For `CC(=O)N1CCc2c([nH]c3ccc(Br)cc23)C1c1ccccc1` (stereo unspecified), the GI50 was > 9.53 µM (inactive) in assay [1]; 2.75 µM (inactive) in assay [2]; 3.69 µM (inactive) in assay [3]; > 7.71 µM (inactive) in assay [4]; > 10 µM (inactive) in [5]; > 9.02 µM (inactive) in [6]. Also, the GI50 is 2.61 µM (inactive) in [7]; 2.55 µM (inactive) in [8]; 0.194 µM in assay [9]; > 10 µM (inactive) in assay [20]; > 10 µM (inactive) in assay [10]; > 10 µM (inactive) in [11]. For the same compound, the GI50 is > 10 µM (inactive) in assay [12]; 0.752 µM (active) in assay [13]; > 10 µM (inactive) in assay [14]; > 7.82 µM (inactive) in assay [15]; 4.16 µM (inactive) in assay [16]; > 3.41 µM (inactive) in assay [18].

In the case of `Cc1ccc2[nH]c3[nH]c(=O)[nH]c(=O)c3c2c1`, the GI50 in assay [1], in assay [2], in assay [4], in assay [5], in [6] and in assay [7] was > 100 µM (inactive) in each case. Also, the GI50 was > 100 µM (inactive) in [8]; greater than 100 µM in assay [9]; > 100 µM (inactive) in [20]; > 100 µM (inactive) in assay [11]; > 100 µM (inactive) in assay [12]; > 100 µM (inactive) in assay [13]. In addition, the GI50 in assay [15] was > 100 µM (inactive); in assay [16], > 100 µM (inactive); in assay [18] it was 43.6 µM (inactive); in assay [19], > 100 µM (inactive).

As to `CCOc1cn(C2CC(O)C(CO)O2)c(=O)[nH]c1=O` (stereo unspecified), the GI50 in [1] is > 100 µM (inactive); in assay [2], 45.9 µM (inactive); in assay [3], > 100 µM (inactive); in assay [4], > 100 µM (inactive); in assay [5] it was > 100 µM (inactive); in assay [6] it was > 100 µM (inactive). The GI50 in assay [7] was > 100 µM (inactive); in [8] it was > 100 µM (inactive); in assay [9], greater than 100 µM; in assay [20], > 100 µM (inactive); in assay [10], > 100 µM (inactive); in assay [11], > 100 µM (inactive). In addition, the GI50 in assay [12], in assay [14], in assay [16], in assay [17], in assay [18] and in assay [19] was > 100 µM (inactive) throughout.
